# Reference: patent US4758551A (priority 1986, dated 1988)
# Numbered stars: 1 amine (or outer) side, 2 acyl side, 3 side chain; on linkers, the order of the positions; unused ones are H or OH. Peptide text beside a SMILES is read from it. γGlu = O=C(O)[C@H](CCC(=O)[*:2])N[*:1]
# Assays:
# Male Swiss Webster mice [1] = assay: Induction of glutathionuria by gamma-glutamyl compounds in mice (urinary glutathione); type: in vivo; conditions: for Urinary GSH: subcutaneous, 200 mM neutral solution, dose 4 mM per kilogram of body weight, urine collected for 1 hour
# Method: Male Swiss Webster mice (20-27 g) were obtained from Taconic Farms (Germantown, N.Y.) and Hilltop Lab Animals (Scottsdale, Pa.).
# (§1) The mice were fed ad libitum. Their urinary bladders were emptied by gentle abdominal pressure prior to subcutaneous injection of the gamma-glutamyl amino acids and urine was collected at 15 minute intervals for 1 hour in a tube containing 5 μl of 50% (w/v) 5-sulfosalicyclic acid. Elevated plasma glutathione levels were occasionally found after moderate abdominal pressure was applied to mice. For this reason, studies of urinary and plasma glutathione levels were carried out on different groups of mice.
# (§2) Plasma, kidneys and livers were obtained and processed by well known means (see Anderson, M. E. et al, J. Biol. Chem. 255:9530-9533 (1980) and Anderson, M. E. et al, Methods Enzymol. 113:548-555 (1986)) and the concentration of glutathione therein was determined by the GSSG reductase-DTNB recycling assay (see Anderson, M. E. et al, Methods Enzymol. 113:548-555 (1986), Tietze, F., Analytical Biochem. 27:502-522 (1969) and Owens, C. et al, Biochem. J. 94:705-711 (1965)).
# The urine samples were treated with 5mM dithiothreitol (pH 7.0) for 1 hour followed by derivatization with 2-vinylpyridine (see Griffith, O. W., Analytical Biochem. 106:207-212 (1980)). The derivatized samples were chromatographed on the amino acid analyzer using lithium citrate buffers (see Benson, J. V. et al, Anal. Biochem. 18:228-240 (1967)). The elution times for the vinylpyridine derivatives of gamma-glutamyl glutathione, gamma-glutamylcysteine, glutathione, cysteinylglycine and cysteine were 120, 163, 165, 220 and 235 minutes, respectively.
# *The mice were injected subcutaneously with a 200 mM neutral solution of
# the indicated amino acid (dose, 4 mM per kilogram of body weight) or with
# an equivalent volume of saline. Urine was collected for 1 hour.
# [2] = biological target: T1, purified rat kidney gamma-glutamyl transpeptidase (Rattus norvegicus, UniProt P07314); assay: Gamma-glutamyl transpeptidase activity assay with L-gamma-glutamyl-p-nitroanilide (apparent Khi, Dixon plot); type: biochemical
# T1 construct: Highly purified rate kidney gamma-glutamyl transpeptidase was prepared by well known means; from tissue; host or cells: rat kidney
# T1 sequence (P07314 1-379 limits assumed): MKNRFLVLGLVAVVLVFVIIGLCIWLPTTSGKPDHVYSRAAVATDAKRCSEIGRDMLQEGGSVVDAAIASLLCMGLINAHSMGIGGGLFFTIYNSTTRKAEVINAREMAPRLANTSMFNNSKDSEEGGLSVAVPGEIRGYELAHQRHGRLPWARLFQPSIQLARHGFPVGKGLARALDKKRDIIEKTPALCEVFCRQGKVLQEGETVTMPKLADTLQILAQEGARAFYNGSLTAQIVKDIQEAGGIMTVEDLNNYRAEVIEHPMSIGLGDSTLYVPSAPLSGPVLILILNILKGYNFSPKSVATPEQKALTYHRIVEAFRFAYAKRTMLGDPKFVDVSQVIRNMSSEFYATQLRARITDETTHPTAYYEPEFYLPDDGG
# T1 sequence (P07314 380-568 limits assumed): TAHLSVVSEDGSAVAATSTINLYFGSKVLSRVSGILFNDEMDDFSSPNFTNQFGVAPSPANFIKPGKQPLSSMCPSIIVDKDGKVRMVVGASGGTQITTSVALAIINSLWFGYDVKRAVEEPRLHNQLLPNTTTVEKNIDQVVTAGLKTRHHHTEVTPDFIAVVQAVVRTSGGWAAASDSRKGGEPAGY
# Method: Highly purified rate kidney gamma-glutamyl transpeptidase was prepared by well known means (see Tate, S. S. et al, Methods Enzymol. 113:400-419 (1986)). Bovine and porcine gamma-glutamyl transpeptidase can be obtained from Sigma Chemical Co. (St. Louis, Mo.).
# Gamma-glutamyl transpeptidase activity was assayed using L-gamma-glutamyl-p-nitroanilide and the rate of formation of p-nitroaniline at 405 nm at 37° C. was measured (see Orlowski, M. et al, Biochim. Biophys. Acta 73:679-681 (1973)). The 1 ml final volume enzyme reaction mixture employed contained 40 mM Tris-HCl (pH 7.5), 30 or 60 μM L-gamma-glutamyl-p-nitroanilide, 30 or 150 μM gamma-glutamyl amino acid and 0.115 units gamma-glutamyl transpeptidase. Two different concentrations of substrate were employed for kinetic analyses. The reaction was initiated by adding gamma-glutamyl transpeptidase. The absorbance scale was 0.02 or 0.05 to insure that initial rates were obtained. The apparent hydrolysis Ki (Khi) values were determined from a Dixon plot and normalized to the apparent Km value for 6 μM L-gamma-glutamyl-p-nitroanilide (see Thompson, G. A. et al, Biochem. Biophys, Res. Commun. 71:32-36 (1976)).
# The values for the apparent Khi for a number of gamma-glutamyl amino acids using purified rat kidney gamma-glutamyl transpeptidase are shown in the Figure. […]
# [3] = In vivo conversion of the administered gamma-glutamyl compound
# Description: The values for the apparent Khi for a number of gamma-glutamyl amino acids using purified rat kidney gamma-glutamyl transpeptidase are shown in the Figure. These values were plotted against the urinary glutathione obtained in the in vivo studies and a fairly close correlation was found. That is, the apparent affinity of gamma-glutamyl transpeptidase or gamma-glutamyl amino acid substrates varies over about a 6-fold range. In contrast, the affinity for the corresponding free amino acids varies over a range of several hundred (see Tate, S. S. et al, J. Biol. Chem. 249:7593-7602 (1974)).
# Male Swiss Webster mice [4] = conditions: similar protocol (Griffith 1979); cited from earlier work
# Male Swiss Webster mice [5] = conditions: cited from earlier work
# Male Swiss Webster mice [6] = assay: Glutathione levels of kidney, liver and blood plasma of mice after administration; type: in vivo; conditions: experimental period 1 hour
# Method: as §1, §2
# [7] = biological target: T1, purified rat kidney gamma-glutamyl transpeptidase; conditions: free amino acids (Tate 1974); cited from earlier work
# mice = conditions: cited from earlier work
# [8] = mice, after administration of the hydrazide
Structure (SMILES),Urinary GSH (Male Swiss Webster mice [1]),other results
CC[C@H](NC(=O)CC[C@H](N)C(=O)O)C(=O)O,1.52 ± 0.38 mM,–
"N[C@@H](CCC(=O)N[C@@H](CSSC[C@H](NC(=O)CC[C@H](N)C(=O)O)C(=O)O)C(=O)O)C(=O)O [(L-Gamma-Glu-- L-Cys)2, (L-gamma-Glu-L-Cys)2]",5.77 ± 1.05 mM,Urinary GSH (Male Swiss Webster mice [1]; listed as gamma-glutamylcysteine disulfide): about 6 mM
"CSCC[C@H](NC(=O)CC[C@@H](N)C(=O)O)C(=O)O [D-Gamma-Glu-- L-Met, D-Gamma-Glu-L-Met]",0.18 ± 0.05 mM,–
"N[C@@H](CSSC[C@H](N)C(=O)O)C(=O)O [L-Cystine, reference compound]",< 0.03 mM,–
"N[C@@H](CCCCNC(=O)CC[C@H](N)C(=O)O)C(=O)O [L-Gamma-- ε-L-Lys, L-Gamma-Glu-ε-L-Lys]",0.77 ± 0.17 mM,–
"N[C@@H](CCC(=O)NCC(=O)O)C(=O)O [L-Gamma-Glu-- Gly, L-Gamma-Glu-Gly]",2.67 ± 0.40 mM,–
"N[C@@H](CCC(=O)NCC(=O)NCC(=O)O)C(=O)O [L-Gamma-Glu-- Gly--Gly, L-Gamma-Glu-Gly-Gly] (γGlu-Gly-Gly-OH)",3.29 ± 1.16 mM,"gamma-glutamyl glutathione in the urine (Male Swiss Webster mice [1]): significant amounts; urinary gamma-glutamyl cysteine relative to urinary glutathione (Male Swiss Webster mice [1]; vinylpyridine derivative, amino acid analyzer): about 10%"
"N[C@@H](CCC(=O)N[C@@H](CSSC[C@H](NC(=O)CC[C@H](N)C(=O)O)C(=O)O)C(=O)O)C(=O)O [L-Gamma-Glu-- L-(Cys)2, L-Gamma-Glu-L-(Cys)2]",2.63 ± 0.33 mM,–
"C[C@H](NC(=O)CC[C@H](N)C(=O)O)C(=O)O [L-Gamma-Glu-- L-Ala, L-Gamma-Glu-L-Ala]",5.69 ± 1.26 mM,affinity for / interaction with gamma-glutamyl transpeptidase [2]: much higher affinity; gamma-glutamyl glutathione in the urine (Male Swiss Webster mice [1]): significant amounts
"N[C@@H](CCC(=O)N[C@@H](CC(=O)O)C(=O)O)C(=O)O [L-Gamma-Glu-- L-Asp, L-Gamma-Glu-L-Asp]",0.26 ± 0.10 mM,–
"C[C@H](NC(=O)CC[C@H](NC(=O)CC[C@H](N)C(=O)O)C(=O)O)C(=O)O [L-Gamma-Glu-- L-Gamma-Glu-- L-Ala, L-Gamma-Glu-L-Gamma-Glu-L-Ala]",5.07 ± 0.73 mM,in vivo conversion [3]: rapidly converted in vivo to gamma-glutamyl alanine; induction of glutathionuria (Male Swiss Webster mice [1]): induced glutathionuria
"NC(=O)CC[C@H](NC(=O)CC[C@H](N)C(=O)O)C(=O)O [L-Gamma-Glu-- L-Gln, L-Gamma-Glu-L-Gln]",1.17 ± 0.55 mM,–
"N[C@@H](CCC(=O)N[C@@H](CCC(=O)O)C(=O)O)C(=O)O [L-Gamma-Glu-- L-Glu, L-Gamma-Glu-L-Glu]",5.28 ± 1.05 mM,–
"CC[C@H](C)[C@H](NC(=O)CC[C@H](N)C(=O)O)C(=O)O [L-Gamma-Glu-- L-Ile, L-Gamma-Glu-L-Ile]",1.00 ± 0.10 mM,–
"CC(C)C[C@H](NC(=O)CC[C@H](N)C(=O)O)C(=O)O [L-Gamma-Glu-- L-Leu, L-Gamma-Glu-L-Leu]",0.60 ± 0.07 mM,–
"CSCC[C@H](NC(=O)CC[C@H](N)C(=O)O)C(=O)O [L-Gamma-Glu-- L-Met, L-Gamma-Glu-L-Met]",8.54 ± 0.99 mM,–
"N[C@@H](CCC(=O)N[C@@H](Cc1ccc(O)cc1)C(=O)O)C(=O)O [L-Gamma-Glu-- L-Tyr, L-Gamma-Glu-L-Tyr]",3.19 ± 0.80 mM,–
"CC(C)[C@H](NC(=O)CC[C@H](N)C(=O)O)C(=O)O [L-Gamma-Glu-- L-Val, L-Gamma-Glu-L-Val]",0.49 ± 0.25 mM,–
NC(CCC(=O)NNc1ccccc1C(=O)O)C(=O)O [L-gamma-glutamyl-(o-carboxy)phenylhydrazide],–,glutathione found in the urine (Male Swiss Webster mice [4]): 3.6 to 5.6 mM; plasma glutathione levels (Male Swiss Webster mice [5]; Griffith 1979): marked increases; decrease in kidney glutathione levels (Male Swiss Webster mice [5]; [8]): ~30%; decrease in liver glutathione levels (Male Swiss Webster mice [5]; [8]): ~13%
"NCCCC[C@H](NC(=O)[C@@H](N)CCC(=O)O)C(=O)O [L-glu-L-(α )-lys, reference compound] (H-Glu-Lys-OH)",< 0.03 mM,–
"C[C@H](NC(=O)[C@@H](N)CCC(=O)O)C(=O)O [L-glu-L-ala, reference compound] (H-Glu-Ala-OH)",< 0.03 mM,–
"N[C@@H](CCC(=O)O)C(=O)N[C@@H](Cc1ccc(O)cc1)C(=O)O [L-glu-L-tyr, reference compound] (H-Glu-Tyr-OH)",< 0.03 mM,–
"CC(C)[C@H](NC(=O)[C@@H](N)CCC(=O)O)C(=O)O [L-glu-L-val, reference compound] (H-Glu-Val-OH)",< 0.03 mM,–
"NC(=O)CC[C@H](N)C(=O)O [L-glutamine, L-(and D-)glutamine, reference compound]",< 0.03 mM,affinity for / interaction with gamma-glutamyl transpeptidase [2]: very poor gamma-glutamyl substrate; induction of glutathionuria (Male Swiss Webster mice [1]): ineffective
CSC[C@H](NC(=O)CC[C@H](N)C(=O)O)C(=O)NCC(=O)O [S--Methyl glutathione],5.21 ± 1.30 mM,–
N[C@@H](CCC(=O)N[C@@H](CS)C(=O)O)C(=O)O [gamma-glutamylcysteine],–,effect on kidney glutathione levels (Male Swiss Webster mice [5]; Anderson 1983): increases; effect on liver glutathione levels (Male Swiss Webster mice [6]): does not affect
NCCCC[C@H](N)C(=O)O [lysine],–,acceptor substrate of gamma-glutamyl transpeptidase [7]: extremely poor acceptor substrates
NNc1ccccc1C(=O)O [o-carboxyphenylhydrazine],–,fatal dose (mice): more than 2 mM per kilogram of body weight
CC(C)[C@H](N)C(=O)O [valine],–,acceptor substrate of gamma-glutamyl transpeptidase [7]: extremely poor acceptor substrates
